Laboratory results as given in PubChem BioAssay AID248 (DTP/NCI, 2004).
Where “and” joins values, the source holds several entries; their conditions need not be identical. Equal entries are not always repeated. Inconclusive results and toxic doses are left out. No stated cut-off is given here; in the data, active means T/C of 150% or more; inactive means T/C below 125%.

Tested on: L1210 leukemia ip in BDF1 mice, survival T/C
Experiment: NCI In Vivo Anticancer Drug Screen. Data for tumor model L1210 Leukemia (intraperitoneal) in B6D2F1 (BDF1) mice
Conditions: endpoint: mean survival time, higher = longer survival
Method in brief: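 Transplanted-tumor mice were given test agent; controls received vehicle only. Survival readings from the two groups were divided (treated over control).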

[1] = dose: 100.0 mg/kg/injection, schedule: Q01DX001 (ip), vehicle: Klucel (hydroxypropylcellulose) (HPC)
[2] = dose: 200.0 mg/kg/injection, schedule: Q01DX001 (ip), vehicle: Klucel (hydroxypropylcellulose) (HPC)
[3] = dose: 400.0 mg/kg/injection, schedule: Q01DX001 (ip), vehicle: Klucel (hydroxypropylcellulose) (HPC)
[4] = dose: 100.0 mg/kg/injection, schedule: Q04DX002 (ip), vehicle: saline with Tween-80
[5] = dose: 200.0 mg/kg/injection, schedule: Q04DX002 (ip), vehicle: saline with Tween-80
[6] = dose: 100.0 mg/kg/injection, schedule: Q01DX009 (ip), vehicle: Klucel (hydroxypropylcellulose) (HPC)
[7] = dose: 200.0 mg/kg/injection, schedule: Q01DX009 (ip), vehicle: Klucel (hydroxypropylcellulose) (HPC)
[8] = dose: 100.0 mg/kg/injection, schedule: Q04DX003 (ip), vehicle: saline with Tween-80
[9] = dose: 200.0 mg/kg/injection, schedule: Q04DX003 (ip), vehicle: saline with Tween-80
[10] = dose: 400.0 mg/kg/injection, schedule: Q04DX003 (ip), vehicle: saline with Tween-80
[11] = dose: 100.0 mg/kg/injection, schedule: Q01DX009 (ip), vehicle: saline with Tween-80
[12] = dose: 200.0 mg/kg/injection, schedule: Q01DX009 (ip), vehicle: saline with Tween-80
[13] = dose: 400.0 mg/kg/injection, schedule: Q01DX009 (ip), vehicle: saline with Tween-80
[14] = dose: 400.0 mg/kg/injection, schedule: Q04DX002 (ip), vehicle: saline with Tween-80

Measured: T/C

N#CC(=N)C(C#N)=Nc1c(O)[nH]c2ccccc12
inactive: dose: 25.0 mg/kg/injection, schedule: Q01DX001 (ip), vehicle: DMSO 93 % of control | dose: 25.0 mg/kg/injection, schedule: Q01DX009 (ip), vehicle: DMSO 92 % of control | dose: 50.0 mg/kg/injection, schedule: Q01DX001 (ip), vehicle: DMSO 97 % of control | dose: 50.0 mg/kg/injection, schedule: Q01DX009 (ip), vehicle: DMSO 91 % of control | dose: 100.0 mg/kg/injection, schedule: Q01DX001 (ip), vehicle: DMSO 97 % of control and 102 % of control

CCC1([N+](=O)[O-])COCOC1
inactive: dose: 6.25 mg/kg/injection, schedule: Q04DX003 (ip), vehicle: Klucel (hydroxypropylcellulose) (HPC) 96 % of control | dose: 12.5 mg/kg/injection, schedule: Q04DX003 (ip), vehicle: Klucel (hydroxypropylcellulose) (HPC) 111 % of control | dose: 25.0 mg/kg/injection, schedule: Q04DX003 (ip), vehicle: Klucel (hydroxypropylcellulose) (HPC) 96 % of control and 111 % of control

CSc1ncc2c(=O)n(C)[nH]c2n1
inactive: [1] 93 % of control | [2] 92 % of control | [3] 90 % of control

Nc1nc(Cl)c(Cl)nc1N
inactive: dose: 100.0 mg/kg/injection, schedule: Q04DX003 (ip), vehicle: Klucel (hydroxypropylcellulose) (HPC) 95 % of control | dose: 200.0 mg/kg/injection, schedule: Q04DX003 (ip), vehicle: Klucel (hydroxypropylcellulose) (HPC) 100 % of control | dose: 400.0 mg/kg/injection, schedule: Q04DX003 (ip), vehicle: Klucel (hydroxypropylcellulose) (HPC) 95 % of control

O=C1CC(N2CCCCC2)C(=O)N1c1ccccc1 (stereo not given)
inactive: [4] 92 % of control | [5] 95 % of control

CSc1ccc(NC(=O)Nc2cc(C(C)C)ccc2C)cc1
inactive: [6] 103 % of control | [7] 104 % of control | dose: 400.0 mg/kg/injection, schedule: Q01DX009 (ip), vehicle: Klucel (hydroxypropylcellulose) (HPC) 98 % of control

CCCCCCCCCCCCC(CCCCCCCCCCCC)c1ccccc1
inactive: [1] 112 % of control | [2] 100 % of control | [3] 96 % of control

CCS[S+](CC)CC
inactive: dose: 6.25 mg/kg/injection, schedule: Q01DX009 (ip), vehicle: saline with Tween-80 98 % of control | dose: 12.5 mg/kg/injection, schedule: Q01DX009 (ip), vehicle: saline with Tween-80 102 % of control

O=C(N/N=C\c1ccccc1Cl)C(=O)N/N=C\c1ccccc1Cl
inactive: [8] 94 % of control | [9] 94 % of control | [10] 88 % of control

Cc1ccc(Cl)cc1NC(=O)COc1ccc(Cl)cc1Cl
inactive: [11] 96 % of control | [8] 107 % of control | [12] 93 % of control | [9] 93 % of control | [13] 93 % of control | [10] 98 % of control

CCOC(=O)c1ccc(NC(=S)NC(=O)C(C)Oc2ccccc2)cc1 (stereo not given)
inactive: dose: 100.0 mg/kg/injection, schedule: Q01DX001 (ip), vehicle: saline with Tween-80 102 % of control | [11] 92 % of control and 103 % of control | [4] 93 % of control and 106 % of control | [8] 93 % of control | dose: 200.0 mg/kg/injection, schedule: Q01DX001 (ip), vehicle: saline with Tween-80 94 % of control | [12] 99 % of control and 112 % of control | [5] 93 % of control and 106 % of control | [9] 93 % of control | dose: 400.0 mg/kg/injection, schedule: Q01DX001 (ip), vehicle: saline with Tween-80 108 % of control | [13] 97 % of control and 100 % of control | [14] 92 % of control and 93 % of control

C/C(=N/NC(=O)CNC(=O)c1ccccc1)c1ccc2ccccc2c1
inactive: [11] 87 % of control | [12] 100 % of control

CN1CCN(c2ccccc2N)CC1
inactive: dose: 5.0 mg/kg/injection, schedule: Q04DX003 (ip), vehicle: saline 107 % of control | dose: 10.0 mg/kg/injection, schedule: Q04DX003 (ip), vehicle: saline 96 % of control | dose: 20.0 mg/kg/injection, schedule: Q04DX003 (ip), vehicle: saline 96 % of control

COC(=O)CNC(=O)C(Cc1ccc(OCc2ccccc2)cc1)NC(=O)OC(C)(C)C (stereo not given)
inactive: dose: 100.0 mg/kg/injection, schedule: Q01DX009 (ip), vehicle: saline 98 % of control | dose: 100.0 mg/kg/injection, schedule: Q04DX003 (ip), vehicle: saline 93 % of control | dose: 200.0 mg/kg/injection, schedule: Q01DX009 (ip), vehicle: saline 106 % of control | dose: 200.0 mg/kg/injection, schedule: Q04DX003 (ip), vehicle: saline 97 % of control | dose: 400.0 mg/kg/injection, schedule: Q01DX009 (ip), vehicle: saline 96 % of control | dose: 400.0 mg/kg/injection, schedule: Q04DX003 (ip), vehicle: saline 97 % of control

O=C(O)Cn1c(=O)n(CC(=O)O)c2ccccc21
inactive: [8] 93 % of control | [9] 98 % of control | [10] 98 % of control

O=C(NNC(=S)NC1CC2C=CC1C2)c1cccnc1 (stereo not given)
inactive: [6] 111 % of control | [7] 101 % of control

O=C(/C=C/c1ccc([N+](=O)[O-])cc1)Nc1cccc(S(=O)(=O)F)c1
inactive: dose: 100.0 mg/kg/injection, schedule: Q01DX001 (ip), vehicle: saline 107 % of control | dose: 200.0 mg/kg/injection, schedule: Q01DX001 (ip), vehicle: saline 112 % of control | dose: 400.0 mg/kg/injection, schedule: Q01DX001 (ip), vehicle: saline 101 % of control

O=C(O)CCCCCNC(=O)OCc1ccccc1
inactive: dose: 100.0 mg/kg/injection, schedule: Q01DX009 (ip), vehicle: gum acacia 102 % of control | dose: 100.0 mg/kg/injection, schedule: Q04DX003 (ip), vehicle: gum acacia 91 % of control | dose: 200.0 mg/kg/injection, schedule: Q01DX009 (ip), vehicle: gum acacia 103 % of control | dose: 200.0 mg/kg/injection, schedule: Q04DX003 (ip), vehicle: gum acacia 93 % of control | dose: 400.0 mg/kg/injection, schedule: Q01DX009 (ip), vehicle: gum acacia 86 % of control | dose: 400.0 mg/kg/injection, schedule: Q04DX003 (ip), vehicle: gum acacia 91 % of control

CCCCN=C([Se])NCCCC
inactive: dose: 15.0 mg/kg/injection, schedule: Q01DX015 (ip), vehicle: carboxymethylcellulose (CMC) 103 % of control | dose: 30.0 mg/kg/injection, schedule: Q01DX015 (ip), vehicle: carboxymethylcellulose (CMC) 96 % of control | dose: 60.0 mg/kg/injection, schedule: Q01DX015 (ip), vehicle: carboxymethylcellulose (CMC) 97 % of control

Brc1cccc(Br)n1
inactive: dose: 50.0 mg/kg/injection, schedule: Q01DX001 (ip), vehicle: other 101 % of control | dose: 100.0 mg/kg/injection, schedule: Q01DX001 (ip), vehicle: other 121 % of control | [4] 106 % of control | dose: 200.0 mg/kg/injection, schedule: Q01DX001 (ip), vehicle: other 97 % of control | [5] 93 % of control | dose: 400.0 mg/kg/injection, schedule: Q01DX001 (ip), vehicle: other 101 % of control | [14] 106 % of control

O=S(=O)(O)Cc1ccc(Cl)cc1Cl
inactive: dose: 100.0 mg/kg/injection, schedule: Q04DX002 (ip), vehicle: saline 95 % of control | dose: 200.0 mg/kg/injection, schedule: Q04DX002 (ip), vehicle: saline 103 % of control | dose: 400.0 mg/kg/injection, schedule: Q04DX002 (ip), vehicle: saline 116 % of control

Cc1cc(C)c(O)c(Br)c1
inactive: [4] 103 % of control | [5] 96 % of control | [14] 107 % of control
